This note sets out measurements from patent publication US20110066238A1, “RECONSTRUCTED CORNEA AND MUCOUS MEMBRANE” (BASF BEUTY CARE SOLUTIONS FRANCE S.A.S, priority 2008, published 2011).

Common to all, as to type: cell-based
Data set [1] relates to reconstructed human hemi-corneas. Briefly: Histological study of reconstructed human hemi-corneas treated with SDS. Particulars: 10 minutes, complete immersion; 0.5%, 1%, 2%, 3% SDS tested. Here is the method:
A cell suspension preferentially containing 2×10^5 corneal epithelial cells/500 μl of culture medium is seeded on the surface of the reconstructed human corneal stroma. The culture medium used is preferentially composed of DMEM/HAM F12 (2/1), 10% foetal calf serum (FCS), EGF (10 ng/ml), insulin (5 μg/ml), adenine (0.18 mM), hydrocortisone (0.4 μg/ml), cholera toxin (0.1 nM), triiodothyronine (2 nM), glutamine (4 mM), ascorbic acid (1 mM), penicillin G (100 IU/ml), gentamicin (20 μg/ml) and amphotericin B (1 μg/ml). The corneal epithelial cells are cultured by immersion for 7 days on the equivalent corneal stroma and with the medium described above.
The cultures are then raised to the air/liquid interface and then cultured for a further 14 days with a culture medium preferentially composed of DMEM, hydrocortisone (0.4 μg/ml), insulin (5 μg/ml), ascorbic acid (1 mM), penicillin G (100 IU/ml), gentamicin (20 μg/ml) and amphotericin B (1 μg/ml).
The reconstructed human hemi-corneas are treated for 10 minutes by complete immersion, with increasing solutions of SDS (0.5%, 1%, 2% and 3%). After the treatment, the reconstructed human hemi-corneas are rinsed with culture medium, for example DMEM, and then fixed, for example with formaldehyde, and then included in paraffin. […]

Data set [2] has the same test system. The experiment in a line: Cell viability (MTT) of reconstructed human hemi-corneas treated with SDS. Particulars: beyond 0.5% SDS, 10 minutes immersion.
Another data set deals with IL-6. Briefly: Secretion of IL-6 by reconstructed human hemi-corneas treated with SDS (membrane ARRAY). To be noted: culture supernatant after at least 24 hours of reculture following SDS treatment; irritant effect without cell mortality. The procedure: After treating with SDS, the reconstructed human hemi-corneas are rinsed with culture medium, for example, DMEM, and then recultured for at least a further 24 hours in the culture medium described for the preparation of the reconstructed human hemi-corneas (Example 5).
The culture supernatants of the reconstructed human hemi-corneas are then recovered in order to assay the secreted pro-inflammatory cytokines. The culture supernatants optionally may be frozen before use.
The inventors evaluated the secretion of IL-6, for example by means of a “membrane ARRAY” method as a function of the cell viability previously studied in Example 6.

The test system of data set [3] is reconstructed human hemi-corneas. Briefly: Cellular recovery of reconstructed human hemi-corneas treated with SDS, histological analysis. Here is the method: The reconstructed human hemi-corneas are treated for 10 minutes by complete immersion, with increasing solutions of SDS (0.5%, 1%, 2% and 3%). After the treatment, the reconstructed human hemi-corneas are rinsed with culture medium, for example DMEM, and then fixed, for example with formaldehyde, and then included in paraffin. Paraffin slices are then prepared by microtome, preferentially at a thickness of 5 μm, and then stained, for example, with haematoxylin, phloxin and saffron. […] At and above 0.5% SDS, a histological effect on the reconstructed human hemi-corneas is observed.
After treatment with SDS, the reconstructed human hemi-corneas are rinsed with culture medium, for example, DMEM, and then recultured for at least a further 24 hours in the culture medium described for the preparation of the reconstructed human hemi-corneas (Example 5). The histological studies are performed as described in Example 5.

For data set [4] the test system is unchanged. Briefly: Cellular recovery of reconstructed human hemi-corneas treated with SDS, cell viability. The procedure:
After culturing for 7, 14 or 28 days, the reconstructed human corneal stromas are analysed in the following manner: • the cultures are incubated for 2 hours at 37° C. in 2 ml of MTT (methyl thiazolyl tetrazolium) at 1 mg/ml. The negative control corresponds to the biomaterial not containing keratocytes; • the cultures are then recovered, and then incubated in 4 ml of DMSO (dimethyl sulfoxide) for 4 hours with stirring; • a fraction of the culture supernatant (200 μl) of each sample is recovered and then analysed by spectrophotocolorimetry (550 nm). The optical density read is directly proportional to the number of living cells. The biomaterial that has a porosity of between 40 and 50 μm is suitable for the proliferation of keratocytes. Indeed, the cellular proliferation kinetics of the keratocytes is proportional to the culturing time of the reconstructed human corneal stromas. Furthermore, irrespective of the conditions of manufacture of our biomaterial [1.6%, 1.4% and 1.25% dry matter], as described in Example 2, the keratocytes have a similar degree of proliferation.
After treatment with SDS, the reconstructed human hemi-corneas are rinsed with culture medium, for example, DMEM, and then recultured for at least a further 24 hours in the culture medium described for the preparation of the reconstructed human hemi-corneas (Example 5). […]

Some results are limits rather than exact numbers.

As to `CCCCCCCCCCCCOS(=O)(=O)[O-].[Na+]` [SDS, sodium dodecyl sulfate], the “SDS concentration at which a histological effect is observed” value in data set [1] is reported as ≥ 0.5%. In data set [2], the cell viability result is “less than 75%”. Besides, the “secretion of IL-6” value with IL-6 was “strong secretion of IL-6”. Besides, the “epithelial organization after cellular recovery (histology)” value is recorded as “epithelial organization close to that of untreated hemi-corneas” in data set [3] (0.5% and 1% SDS, after 48 hours of cellular recovery); “irreversible epithelial damage” in data set [3] (2% and 3% SDS, after recovery). In addition, the “cell viability after recovery (T=48 h) versus after treatment (T=0 h)” value is listed as “significantly equivalent” in data set [4] (0.5% SDS); “significantly lower cell viability” in data set [4] (1%, 2% and 3% SDS).
